Data as given in US8940909B2, “Indicator platform” (Biosynth AG, priority 2009, dated 2015).

Experiments:
Assay in all cases: IO staining of colonies of beta-D-galactosidase positive/negative bacteria (Table IVb)
Assay type in all cases: cell-based
Aeromonas hydrophila 292 = settings: Aeromonas hydrophila strain 292, b-gal +; 24 h on Nutrient Agar, 150 mg/l indicator, 100 mg/l IPTG
Bacillus subtilis 65 = settings: Bacillus subtilis strain 65, b-gal −; 24 h on Nutrient Agar, 150 mg/l indicator, 100 mg/l IPTG
Escherichia coli 270 = settings: Escherichia coli strain 270, b-gal +; 24 h on Nutrient Agar, 150 mg/l indicator, 100 mg/l IPTG
[1] = test system: Pseudomonas aeruginosa 168; settings: Pseudomonas aeruginosa strain 168, b-gal −, 24 h on Nutrient Agar, 150 mg/l indicator, 100 mg/l IPTG; for F: Fluorescence of colonies: footnote 1: blue autofluorescence; for C: Color of colonies: key: −: absent; +/−: weak; +: strong; ++: very strong; for G: Growth of colonies: key: −: absent; +/−: weak; +: strong; ++: very strong
Staphylococcus aureus 2 = settings: Staphylococcus aureus strain 2, b-gal −, 24 h on Nutrient Agar, 150 mg/l indicator, 100 mg/l IPTG; for C: Color of colonies: footnote 2: S. aureus natural color
[2] = test system: Enterobacter aerogenes 242; settings: Enterobacter aerogenes strain 242, b-gal +; 24 h on Nutrient Agar, 150 mg/l indicator, 100 mg/l IPTG; for C: Color of colonies: key: −: absent; +/−: weak; +: strong; ++: very strong; for G: Growth of colonies: key: −: absent; +/−: weak; +: strong; ++: very strong
Serratia marcescens 40 = settings: Serratia marcescens strain 40, b-gal +; 24 h on Nutrient Agar, 150 mg/l indicator, 100 mg/l IPTG
Citrobacter freundii 181 = settings: Citrobacter freundii strain 181, b-gal +; 24 h on Nutrient Agar, 150 mg/l indicator, 100 mg/l IPTG
Salmonella bongori 81 = settings: Salmonella bongori strain 81, b-gal +; 24 h on Nutrient Agar, 150 mg/l indicator, 100 mg/l IPTG
Shigella boydii 135 = settings: Shigella boydii strain 135, b-gal −; 24 h on Nutrient Agar, 150 mg/l indicator, 100 mg/l IPTG
Salmonella illa 73 = settings: Salmonella illa strain 73, b-gal +; 24 h on Nutrient Agar, 150 mg/l indicator, 100 mg/l IPTG
[3] = test system: Listeria monocytogenes (4b) 290; settings: Listeria monocytogenes (4b) strain 290, b-gal −; 24 h on Nutrient Agar, 150 mg/l indicator, 100 mg/l IPTG; for C: Color of colonies: key: −: absent; +/−: weak; +: strong; ++: very strong; for F: Fluorescence of colonies: key: −: absent; +/−: weak; +: strong; ++: very strong
Enterobacter cloacae 245 = settings: Enterobacter cloacae strain 245, b-gal +; 24 h on Nutrient Agar, 150 mg/l indicator, 100 mg/l IPTG
Escherichia coli 61 = settings: Escherichia coli strain 61, b-gal +; 24 h on Nutrient Agar, 150 mg/l indicator, 100 mg/l IPTG
[4] = test system: Salmonella enteritidis 43; settings: Salmonella enteritidis strain 43, b-gal −; 24 h on Nutrient Agar, 150 mg/l indicator, 100 mg/l IPTG; note: key: −: absent; +/−: weak; +: strong; ++: very strong
[5] = test system: Yersinia enterocolitica 175; settings: Yersinia enterocolitica strain 175, b-gal +/−; 24 h on Nutrient Agar, 150 mg/l indicator, 100 mg/l IPTG; for G: Growth of colonies: key: −: absent; +/−: weak; +: strong; ++: very strong
[6] = test system: Escherichia coli (O157:H7) 60; settings: Escherichia coli (O157:H7) strain 60, b-gal +; 24 h on Nutrient Agar, 150 mg/l indicator, 100 mg/l IPTG
[7] = test system: Staphylococcus saprophyticus 273; settings: Staphylococcus saprophyticus strain 273, b-gal +; 24 h on Nutrient Agar, 150 mg/l indicator, 100 mg/l IPTG; for G: Growth of colonies: key: −: absent; +/−: weak; +: strong; ++: very strong
[8] = test system: Streptococcus agalactiae 195; settings: Streptococcus agalactiae strain 195, b-gal −; 24 h on Nutrient Agar, 150 mg/l indicator, 100 mg/l IPTG; for C: Color of colonies: key: −: absent; +/−: weak; +: strong; ++: very strong; for F: Fluorescence of colonies: key: −: absent; +/−: weak; +: strong; ++: very strong
[9] = test system: Shigella dysenteriae Serovar 1 131; settings: Shigella dysenteriae Serovar 1 strain 131, b-gal +/−; 24 h on Nutrient Agar, 150 mg/l indicator, 100 mg/l IPTG
[10] = test system: Klebsiella pneumoniae 164; settings: Klebsiella pneumoniae strain 164, b-gal +; 24 h on Nutrient Agar, 150 mg/l indicator, 100 mg/l IPTG; for C: Color of colonies: key: −: absent; +/−: weak; +: strong; ++: very strong; for G: Growth of colonies: key: −: absent; +/−: weak; +: strong; ++: very strong
[11] = test system: Staphylococcus intermedius 31; settings: Staphylococcus intermedius strain 31, b-gal +; 24 h on Nutrient Agar, 150 mg/l indicator, 100 mg/l IPTG
Shigella sonnei 133 = settings: Shigella sonnei strain 133, b-gal +/−; 24 h on Nutrient Agar, 150 mg/l indicator, 100 mg/l IPTG

CC(=O)c1ccccc1-n1cc(O[C@@H]2O[C@H](CO)[C@H](O)[C@H](O)[C@H]2O)c2ccc(Cl)cc21 [Indicator I16a, 1-(2-Acetylphenyl)-6-chloro-1H-indol-3-yl-beta-D-galactopyranoside]
C: Color of colonies (Aeromonas hydrophila 292): + | F: Fluorescence of colonies (Aeromonas hydrophila 292): + | G: Growth of colonies (Aeromonas hydrophila 292): + | C: Color of colonies (Bacillus subtilis 65): − | F: Fluorescence of colonies (Bacillus subtilis 65): − | G: Growth of colonies (Bacillus subtilis 65): + | C: Color of colonies (Escherichia coli 270): + | F: Fluorescence of colonies (Escherichia coli 270): + | G: Growth of colonies (Escherichia coli 270): + | C: Color of colonies [1]: − | G: Growth of colonies [1]: + | F: Fluorescence of colonies [1]: +^1 | F: Fluorescence of colonies (Staphylococcus aureus 2): − | G: Growth of colonies (Staphylococcus aureus 2): +/− | C: Color of colonies (Staphylococcus aureus 2): − | C: Color of colonies [2]: + | F: Fluorescence of colonies [2]: + | G: Growth of colonies [2]: + | C: Color of colonies (Serratia marcescens 40): + | F: Fluorescence of colonies (Serratia marcescens 40): + | G: Growth of colonies (Serratia marcescens 40): + | C: Color of colonies (Citrobacter freundii 181): + | F: Fluorescence of colonies (Citrobacter freundii 181): + | G: Growth of colonies (Citrobacter freundii 181): + | C: Color of colonies (Salmonella bongori 81): +/− | F: Fluorescence of colonies (Salmonella bongori 81): +/− | G: Growth of colonies (Salmonella bongori 81): + | C: Color of colonies (Shigella boydii 135): − | F: Fluorescence of colonies (Shigella boydii 135): − | G: Growth of colonies (Shigella boydii 135): + | C: Color of colonies (Salmonella illa 73): − | F: Fluorescence of colonies (Salmonella illa 73): − | G: Growth of colonies (Salmonella illa 73): + | C: Color of colonies [3]: − | F: Fluorescence of colonies [3]: − | G: Growth of colonies [3]: +/− | C: Color of colonies (Enterobacter cloacae 245): + | F: Fluorescence of colonies (Enterobacter cloacae 245): + | G: Growth of colonies (Enterobacter cloacae 245): + | C: Color of colonies (Escherichia coli 61): + | F: Fluorescence of colonies (Escherichia coli 61): + | G: Growth of colonies (Escherichia coli 61): + | C: Color of colonies [4]: − | F: Fluorescence of colonies [4]: − | G: Growth of colonies [4]: + | C: Color of colonies [5]: − | F: Fluorescence of colonies [5]: − | G: Growth of colonies [5]: + | C: Color of colonies [6]: + | F: Fluorescence of colonies [6]: + | G: Growth of colonies [6]: + | C: Color of colonies [7]: + | F: Fluorescence of colonies [7]: + | G: Growth of colonies [7]: + | C: Color of colonies [8]: − | F: Fluorescence of colonies [8]: − | G: Growth of colonies [8]: +/− | C: Color of colonies [9]: − | F: Fluorescence of colonies [9]: − | G: Growth of colonies [9]: + | C: Color of colonies [10]: + | F: Fluorescence of colonies [10]: + | G: Growth of colonies [10]: + | C: Color of colonies [11]: +/− | F: Fluorescence of colonies [11]: +/− | G: Growth of colonies [11]: +/− | C: Color of colonies (Shigella sonnei 133): + | F: Fluorescence of colonies (Shigella sonnei 133): + | G: Growth of colonies (Shigella sonnei 133): +

COc1ccc(C(=O)c2ccccc2-n2cc(O[C@@H]3O[C@H](CO)[C@H](O)[C@H](O)[C@H]3O)c3ccccc32)c(OC)c1 [Indicator I25a, 1-[2-(2,4-Dimethoxybenzoyl)phenyl]-1H-indol-3-yl-beta-D-galactopyranoside]
C: Color of colonies (Aeromonas hydrophila 292): + | F: Fluorescence of colonies (Aeromonas hydrophila 292): +/− | G: Growth of colonies (Aeromonas hydrophila 292): + | C: Color of colonies (Bacillus subtilis 65): − | F: Fluorescence of colonies (Bacillus subtilis 65): − | G: Growth of colonies (Bacillus subtilis 65): + | C: Color of colonies (Escherichia coli 270): ++ | F: Fluorescence of colonies (Escherichia coli 270): ++ | G: Growth of colonies (Escherichia coli 270): + | C: Color of colonies [1]: − | G: Growth of colonies [1]: + | F: Fluorescence of colonies [1]: +^1 | F: Fluorescence of colonies (Staphylococcus aureus 2): − | G: Growth of colonies (Staphylococcus aureus 2): + | C: Color of colonies (Staphylococcus aureus 2): +/−^2 | C: Color of colonies [2]: + | F: Fluorescence of colonies [2]: + | G: Growth of colonies [2]: + | C: Color of colonies (Serratia marcescens 40): + | F: Fluorescence of colonies (Serratia marcescens 40): +/− | G: Growth of colonies (Serratia marcescens 40): + | C: Color of colonies (Citrobacter freundii 181): + | F: Fluorescence of colonies (Citrobacter freundii 181): + | G: Growth of colonies (Citrobacter freundii 181): + | C: Color of colonies (Salmonella bongori 81): +/− | F: Fluorescence of colonies (Salmonella bongori 81): +/− | G: Growth of colonies (Salmonella bongori 81): + | C: Color of colonies (Shigella boydii 135): − | F: Fluorescence of colonies (Shigella boydii 135): − | G: Growth of colonies (Shigella boydii 135): + | C: Color of colonies (Salmonella illa 73): − | F: Fluorescence of colonies (Salmonella illa 73): − | G: Growth of colonies (Salmonella illa 73): + | C: Color of colonies [3]: − | F: Fluorescence of colonies [3]: − | G: Growth of colonies [3]: +/− | C: Color of colonies (Enterobacter cloacae 245): + | F: Fluorescence of colonies (Enterobacter cloacae 245): ++ | G: Growth of colonies (Enterobacter cloacae 245): + | C: Color of colonies (Escherichia coli 61): ++ | F: Fluorescence of colonies (Escherichia coli 61): ++ | G: Growth of colonies (Escherichia coli 61): + | C: Color of colonies [4]: − | F: Fluorescence of colonies [4]: − | G: Growth of colonies [4]: + | C: Color of colonies [5]: − | F: Fluorescence of colonies [5]: − | G: Growth of colonies [5]: + | C: Color of colonies [6]: ++ | F: Fluorescence of colonies [6]: ++ | G: Growth of colonies [6]: + | C: Color of colonies [7]: +/− | F: Fluorescence of colonies [7]: +/− | G: Growth of colonies [7]: + | C: Color of colonies [8]: − | F: Fluorescence of colonies [8]: − | G: Growth of colonies [8]: +/− | C: Color of colonies [9]: − | F: Fluorescence of colonies [9]: − | G: Growth of colonies [9]: + | C: Color of colonies [10]: + | F: Fluorescence of colonies [10]: + | G: Growth of colonies [10]: + | C: Color of colonies [11]: +/− | F: Fluorescence of colonies [11]: +/− | G: Growth of colonies [11]: + | C: Color of colonies (Shigella sonnei 133): + | F: Fluorescence of colonies (Shigella sonnei 133): ++ | G: Growth of colonies (Shigella sonnei 133): +
